Laboratory results: patent publication US12410220B2, “Modulation of mammalian cell lineage by synthetic immodulins” (priority 2021, dated 2025)
Marks after values point to notes of the source that are not given here. Peptide text beside a SMILES is read from it.

How the values were obtained:
[1] = tested on: HFF-1 human fibroblast cell line; assay: Collagen-1 ELISA in HFF-1 dermal fibroblasts; type: cell-based; conditions: peptide 2 uM, 72 hour incubation
Method: Immodulin peptides have potential untility in the field of cosmetics. HFF-1 human fibroblast cell line was obtained from the American Type Culture Collection (ATCC). Cells were grown in a T-75 flask in DMEM Medium containing 10% fetal bovine serum and penicillin-streptomycin at 37° C. in a humidified, 5% CO2 incubator. Cells (100 µl, 2,000 cells/well) were plated in a 96-well plate and incubated overnight at 37° C. in a humidified, 5% CO2 incubator. Next day, 10 µl/well of compounds were added (quadruplicate wells). After 72 hour incubation with the compound, supernatants were collected for Collagen-1 ELISA assay and cell viability was measured in a luminometer after the addition of 100 IL/well CellTiterGlo reagent (Promega Inc, Madison, WI) as recommended by the manufacturer. Collagen stimulating activity of immodulin peptides in HFF-1 dermal fibroblasts: Peptides were added to cells at 2 uM. COL1 immunoreactivity was measured in the supernatants of cultured cells by ELISA using a rabbit monoclonal anti-COL1 primary antibody (Abcam, Cambridge, MA). Control (buffer) value of immunoreactivity was set to 100.

PPAR-gamma = target: T1, PPAR-gamma (Homo sapiens, UniProt P37231); assay: Experiment 4B binding to full length PPAR-gamma; conditions: 400 ng/well protein; 800 ng/well SA488-labelled peptide, 2 hours
T1 construct: 400 ng/well full length RXR-alpha, RXR-beta, RXR-gamma or PPAR-gamma; purchased Abcam, Cambridge, MA
T1 sequence (P37231 1-505): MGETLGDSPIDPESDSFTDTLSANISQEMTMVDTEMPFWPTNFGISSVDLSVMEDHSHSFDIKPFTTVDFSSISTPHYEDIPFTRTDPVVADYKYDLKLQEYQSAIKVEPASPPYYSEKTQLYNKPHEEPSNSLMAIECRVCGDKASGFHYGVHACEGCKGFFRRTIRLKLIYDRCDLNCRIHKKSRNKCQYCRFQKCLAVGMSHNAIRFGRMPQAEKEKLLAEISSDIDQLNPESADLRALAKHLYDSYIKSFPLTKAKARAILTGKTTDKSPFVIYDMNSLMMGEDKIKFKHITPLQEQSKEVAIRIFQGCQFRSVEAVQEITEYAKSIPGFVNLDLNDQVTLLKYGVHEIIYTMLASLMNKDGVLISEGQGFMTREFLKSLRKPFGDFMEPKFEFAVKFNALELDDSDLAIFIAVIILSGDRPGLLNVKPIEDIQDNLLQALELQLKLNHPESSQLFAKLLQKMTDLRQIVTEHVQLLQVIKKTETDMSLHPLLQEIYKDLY
Method: (§1) Experiment 4B. Binding of immodulin peptides to RXR isoforms and domains. 100 ng/well recombinant human RXRa-DBD or RXRa-LBD, or 400 ng/well full length RXR-alpha, RXR-beta, RXR-gamma or PPAR-gamma (Abcam, Cambridge, MA) was adsorbed to wells of a 96-well plate for 60 minutes at room temperature, then blocked with 200 uL 1% BSA in PBS buffer overnight. The plate was washed with PBS and 800 ng/well Streptavidin-Alexa 488 conjugate (SA488)-labelled peptide was added. The plate was incubated for 2 hours at room temperature, washed and counted in a fluorometer (excitation/emission 485/525 nm). Significant binding above background is also shown (**p<0.05). […] When tested against domains of RXR-alpha, these peptides bind the DNA-binding domain (DBD) better than the ligand-binding domain (LBD).

RXR-alpha LBD = target: T2, RXR-alpha LBD (Homo sapiens, UniProt P19793); assay: Experiment 4B binding to RXR-alpha LBD; conditions: 100 ng/well protein; 800 ng/well SA488-labelled peptide, 2 hours
T2 construct: purchased Abcam, Cambridge, MA
T2 sequence (P19793 227-458 limits assumed): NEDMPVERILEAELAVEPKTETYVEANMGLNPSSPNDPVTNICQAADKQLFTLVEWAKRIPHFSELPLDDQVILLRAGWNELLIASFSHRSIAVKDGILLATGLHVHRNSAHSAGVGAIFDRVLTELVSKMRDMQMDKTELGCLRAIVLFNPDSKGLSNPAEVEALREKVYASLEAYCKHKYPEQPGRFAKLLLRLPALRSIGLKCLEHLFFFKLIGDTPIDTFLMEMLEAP
Method: as §1

RXR-gamma = target: T3, RXR-gamma (Homo sapiens, UniProt P48443); assay: Experiment 4B binding to full length RXR-gamma; conditions: 400 ng/well protein; 800 ng/well SA488-labelled peptide, 2 hours
T3 construct: 400 ng/well full length RXR-alpha, RXR-beta, RXR-gamma or PPAR-gamma; purchased Abcam, Cambridge, MA
T3 sequence (P48443 1-463): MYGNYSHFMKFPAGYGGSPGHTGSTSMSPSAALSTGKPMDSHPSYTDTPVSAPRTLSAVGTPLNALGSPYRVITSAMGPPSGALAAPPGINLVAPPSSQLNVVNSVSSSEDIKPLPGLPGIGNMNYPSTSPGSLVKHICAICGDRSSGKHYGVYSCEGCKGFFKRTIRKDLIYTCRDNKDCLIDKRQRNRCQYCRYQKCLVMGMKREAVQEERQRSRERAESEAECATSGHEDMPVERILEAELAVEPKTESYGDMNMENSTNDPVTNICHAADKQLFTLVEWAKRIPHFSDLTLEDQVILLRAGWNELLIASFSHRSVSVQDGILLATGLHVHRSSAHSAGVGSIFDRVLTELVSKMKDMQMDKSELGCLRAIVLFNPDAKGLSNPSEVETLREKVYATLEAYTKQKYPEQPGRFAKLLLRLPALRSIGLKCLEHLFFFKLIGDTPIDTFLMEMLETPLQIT
Method: as §1

Nur77 (NR4A1) = target: T4, Nur77 (NR4A1) (Homo sapiens, UniProt P22736); assay: Experiment 4C binding to full-length Nur77; conditions: 400 ng/well Nur77; 333 ng/well SA488-labelled peptide, 60 min; background subtracted
T4 construct: purchased Abcam Inc, Cambridge, MA
Method: 400 ng/well recombinant human Nur77 protein (NR4A1) purchased from Abcam Inc, Cambridge, MA, was adsorbed to wells of a 96-well plate for 90 minutes at room temperature, then blocked with 200 uL 1% BSA in PBS buffer overnight. The plate was washed with PBS and then 333 ng/well Streptavidin-Alexa 488 conjugate (SA488)-labelled imm3 or imm4 peptide was added. The plate was incubated for 60 min at room temperature, washed and counted in a standard fluorometer (excitation/emission 485/525 nm). Background (buffer alone) was subtracted.

T4 sequence (P22736 whole entry): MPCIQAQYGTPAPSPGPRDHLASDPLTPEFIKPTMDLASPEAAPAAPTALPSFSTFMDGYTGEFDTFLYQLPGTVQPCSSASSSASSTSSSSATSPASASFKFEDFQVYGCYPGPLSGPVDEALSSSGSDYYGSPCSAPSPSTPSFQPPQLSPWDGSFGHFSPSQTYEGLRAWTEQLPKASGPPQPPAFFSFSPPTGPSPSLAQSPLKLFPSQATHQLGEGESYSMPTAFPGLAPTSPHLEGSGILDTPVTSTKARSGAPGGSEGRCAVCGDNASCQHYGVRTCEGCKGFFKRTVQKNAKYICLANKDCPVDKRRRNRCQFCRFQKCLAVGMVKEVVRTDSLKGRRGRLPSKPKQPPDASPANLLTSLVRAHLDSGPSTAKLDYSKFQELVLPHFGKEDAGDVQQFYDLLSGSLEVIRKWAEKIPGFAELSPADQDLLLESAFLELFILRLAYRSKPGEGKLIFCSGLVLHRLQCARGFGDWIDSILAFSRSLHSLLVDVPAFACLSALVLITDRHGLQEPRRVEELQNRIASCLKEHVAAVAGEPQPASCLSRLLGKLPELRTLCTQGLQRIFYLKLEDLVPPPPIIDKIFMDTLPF

Row | Compound | COL1 immunoreactivity in supernatants, control (buffer) set to 100 [1] | Binding to PPAR-gamma relative to imm3 binding (=100) (PPAR-gamma) | Binding to RXR-alpha LBD relative to imm3 binding (=100) (RXR-alpha LBD) | Binding to RXR-gamma relative to imm3 binding (=100) (RXR-gamma) | Binding to Nur77 (NR4A1), normalized to imm3 binding=100 (Nur77 (NR4A1))
1 | CC[C@H](C)[C@H](NC(=O)CNC(=O)[C@H](CCCNC(=N)N)NC(=O)[C@H](CCCCN)NC(=O)[C@H](CCCNC(=N)N)NC(=O)CNC(=O)[C@H](CCCNC(=N)N)NC(=O)[C@H](CO)NC(=O)[C@@H]1CCCN1C(=O)[C@H](CCCCN)NC(=O)[C@H](CS)NC(=O)[C@H](CCC(N)=O)NC(=O)[C@H](CCCCN)NC(=O)[C@H](CCCNC(=N)N)NC(=O)[C@H](CCCCN)NC(=O)[C@H](Cc1ccc(O)cc1)NC(=O)[C@H](Cc1ccccc1)NC(=O)CNC(=O)[C@H](CCCCN)NC(=O)[C@@H](N)CCCNC(=N)N)C(=O)N[C@@H](CS)C(=O)N[C@@H](Cc1c[nH]c2ccccc12)C(=O)O [imm5] (H-RKGFYKRKQCKPSRGRKRGICW-OH; N-terminus and C-terminus assumed) | 93 | 1.6 ± 0.4 | 1.8 ± 1.9 | 90.0 ± 19.6** | 
2 | N=C(N)NCCC[C@H](NC(=O)CNC(=O)[C@H](CCCCN)NC(=O)[C@H](CO)NC(=O)[C@@H]1CCCN1C(=O)[C@H](CCCNC(=N)N)NC(=O)[C@H](CS)NC(=O)[C@H](CCC(N)=O)NC(=O)[C@H](CCCCN)NC(=O)[C@H](CCCCN)NC(=O)[C@H](CCCCN)NC(=O)[C@H](Cc1ccc(O)cc1)NC(=O)[C@H](Cc1ccccc1)NC(=O)CNC(=O)[C@H](CCCCN)NC(=O)[C@@H](N)CCCCN)C(=O)N[C@@H](CCCCN)C(=O)N[C@@H](CCCNC(=N)N)C(=O)NCC(=O)N[C@@H](Cc1ccccc1)C(=O)N[C@@H](CS)C(=O)N[C@@H](Cc1c[nH]c2ccccc12)C(=O)O [imm3] (H-KKGFYKKKQCRPSKGRKRGFCW-OH; N-terminus and C-terminus assumed) | 101 | 2.1 ± 1.4 | 0.6 ± 1.5 | 100.0 ± 16.5** | 100.0 ± 9.3
3 | CC(C)C[C@H](NC(=O)[C@H](C)NC(=O)[C@@H]1CCCN1C(=O)[C@H](Cc1c[nH]cn1)NC(=O)[C@H](CS)NC(=O)[C@H](CCC(N)=O)NC(=O)[C@H](CCCCN)NC(=O)[C@@H]1CCCN1C(=O)[C@H](Cc1c[nH]cn1)NC(=O)[C@H](Cc1ccccc1)NC(=O)[C@H](CC(N)=O)NC(=O)CNC(=O)[C@H](CC(N)=O)NC(=O)[C@@H](N)CCCNC(=N)N)C(=O)N[C@@H](CC(=O)O)C(=O)NCC(=O)N[C@@H](CCC(N)=O)C(=O)N[C@@H](CCCNC(=N)N)C(=O)NCC(=O)N[C@@H](CCCCN)C(=O)N[C@@H](CS)C(=O)N[C@@H](Cc1c[nH]c2ccccc12)C(=O)O [imm4] (H-RNGNFHPKQCHPALDGQRGKCW-OH; N-terminus and C-terminus assumed) | 105 | 0.1 ± 0.0 | 3.0 ± 1.3 | 3.6 ± 7.0 | 0.3 ± 8.9
4 | N=C(N)NCCC[C@H](NC(=O)[C@H](CCCNC(=N)N)NC(=O)[C@H](CCC(N)=O)NC(=O)CNC(=O)[C@H](CCC(N)=O)NC(=O)[C@H](CO)NC(=O)[C@H](CO)NC(=O)[C@H](CCCNC(=N)N)NC(=O)[C@H](CS)NC(=O)[C@H](CCC(N)=O)NC(=O)[C@H](CCCNC(=N)N)NC(=O)[C@H](CCCCN)NC(=O)[C@H](CCCNC(=N)N)NC(=O)[C@H](Cc1ccc(O)cc1)NC(=O)[C@H](Cc1ccccc1)NC(=O)CNC(=O)[C@H](CCCNC(=N)N)NC(=O)[C@@H](N)Cc1c[nH]cn1)C(=O)NCC(=O)N1CCC[C@H]1C(=O)N[C@@H](CS)C(=O)N[C@@H](Cc1c[nH]c2ccccc12)C(=O)O [imm6] (H-HRGFYRKRQCRSSQGQRRGPCW-OH; N-terminus and C-terminus assumed) | 112 | 6.8 ± 2.0 | 1.6 ± 1.4 | 42.0 ± 11.6** | 
